Patent US11117892B2, “Pyrrolo-pyridine derivative compound, method for preparing same, and pharmaceutical composition containing same as active ingredient for prevention or treatment of protein kinase-related diseases” (DAEGU-GYEONGBUK MEDICAL INNOVATION FOUNDATION, priority 2017, dated 2021)

Legend:
Assay in all cases: scanMAX Kinase assay panel
Type in all cases: binding
Settings in all cases: read-out: % control
FLT3(D835V) = FLT3(D835V) (Homo sapiens (Human), UniProt P36888, D835V)
Outline: (§1)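 scanMAX kinase panel screen. Normalisation: (cpd − pos ctrl)/(neg ctrl − pos ctrl) × 100. Neg ctrl is DMSO (100%); pos ctrl gives 0%.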

YES = YES (Homo sapiens (Human), UniProt P07947)
Outline: as §1

SRPK3 = SRPK3 (Homo sapiens (Human), UniProt Q9UPE1)
Outline: as §1

NDR1 = NDR1 (Homo sapiens (Human), UniProt Q15208)
Outline: as §1

FLT3(D835H) = FLT3(D835H) (Homo sapiens (Human), UniProt P36888, D835H)
Outline: as §1

FGFR2 = FGFR2 (Homo sapiens (Human), UniProt P21802)
Outline: as §1

ERK3 = ERK3 (Homo sapiens (Human), UniProt Q16659)
Outline: as §1

[1] = biological target: JAK2(JH1domain-catalytic) (Homo sapiens (Human), UniProt O60674)
Outline: as §1

MAP4K2 = MAP4K2 (Homo sapiens (Human), UniProt Q12851)
Outline: as §1

CASK = CASK (Homo sapiens (Human), UniProt O14936)
Outline: as §1

JNK1 = JNK1 (Homo sapiens (Human), UniProt P45983)
Outline: as §1

ZAP70 = ZAP70 (Homo sapiens (Human), UniProt P43403)
Outline: as §1

YANK1 = YANK1 (Homo sapiens (Human), UniProt Q8WU08)
Outline: as §1

CAMK1D = CAMK1D (Homo sapiens (Human), UniProt Q8IU85)
Outline: as §1

MAPKAPK5 = MAPKAPK5 (Homo sapiens (Human), UniProt Q8IW41)
Outline: as §1

LYN = LYN (Homo sapiens (Human), UniProt P07948)
Outline: as §1

CAMK1 = CAMK1 (Homo sapiens (Human), UniProt Q14012)
Outline: as §1

EGFR(G719C) = EGFR(G719C) (Homo sapiens (Human), UniProt P00533, G719C)
Outline: as §1

BIKE = BIKE (Homo sapiens (Human), UniProt Q9NSY1)
Outline: as §1

MARK3 = MARK3 (Homo sapiens (Human), UniProt P27448)
Outline: as §1

CAMK1B = CAMK1B (Homo sapiens (Human), UniProt Q6P2M8)
Outline: as §1

IGF1R = IGF1R (Homo sapiens (Human), UniProt P08069)
Outline: as §1

ABL1-phosphorylated = ABL1-phosphorylated (Homo sapiens (Human), UniProt P00519)
Outline: as §1

LRRK2 = LRRK2 (Homo sapiens (Human), UniProt Q5S007)
Outline: as §1

[2] = biological target: ABL1(H396P)-nonphosphorylated (Homo sapiens (Human), UniProt P00519, H396P)
Outline: as §1

PRKCI = PRKCI (Homo sapiens (Human), UniProt P41743)
Outline: as §1

TGFBR2 = TGFBR2 (Homo sapiens (Human), UniProt P37173)
Outline: as §1

[3] = biological target: ABL1(F317I)-nonphosphorylated (Homo sapiens (Human), UniProt P00519, F317I)
Outline: as §1

BRAF(V600E) = BRAF(V600E) (Homo sapiens (Human), UniProt P15056, V600E)
Outline: as §1

TRKA = TRKA (Homo sapiens (Human), UniProt P04629)
Outline: as §1

p38-delta = p38-delta (Homo sapiens (Human), UniProt O15264)
Outline: as §1

PHKG1 = PHKG1 (Homo sapiens (Human), UniProt Q16816)
Outline: as §1

[4] = biological target: EGFR(L747-S752del, P753S) (Homo sapiens (Human), UniProt P00533, DEL747-752/P753S)
Outline: as §1

ERK5 = ERK5 (Homo sapiens (Human), UniProt Q13164)
Outline: as §1

CAMKK1 = CAMKK1 (Homo sapiens (Human), UniProt Q8N5S9)
Outline: as §1

BMPR2 = BMPR2 (Homo sapiens (Human), UniProt Q13873)
Outline: as §1

Chain of ZAP70 (P43403 whole entry): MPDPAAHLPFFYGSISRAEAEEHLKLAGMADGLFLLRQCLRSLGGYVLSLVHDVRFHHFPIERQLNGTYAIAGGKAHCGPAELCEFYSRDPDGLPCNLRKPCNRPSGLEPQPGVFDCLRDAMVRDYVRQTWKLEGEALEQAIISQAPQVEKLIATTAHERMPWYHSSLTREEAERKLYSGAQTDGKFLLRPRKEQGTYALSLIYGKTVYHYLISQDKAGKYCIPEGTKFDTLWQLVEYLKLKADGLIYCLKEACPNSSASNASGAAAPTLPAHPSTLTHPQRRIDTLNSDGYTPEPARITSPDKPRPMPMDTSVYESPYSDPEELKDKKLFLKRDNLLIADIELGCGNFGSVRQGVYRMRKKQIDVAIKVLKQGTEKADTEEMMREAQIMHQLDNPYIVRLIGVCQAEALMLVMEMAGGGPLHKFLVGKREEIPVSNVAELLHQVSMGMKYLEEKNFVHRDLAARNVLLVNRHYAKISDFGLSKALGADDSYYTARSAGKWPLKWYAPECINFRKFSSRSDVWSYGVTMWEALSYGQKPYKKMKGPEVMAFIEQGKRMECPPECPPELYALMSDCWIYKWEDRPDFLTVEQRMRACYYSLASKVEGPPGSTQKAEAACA
Chain of BMPR2 (Q13873 27-1038): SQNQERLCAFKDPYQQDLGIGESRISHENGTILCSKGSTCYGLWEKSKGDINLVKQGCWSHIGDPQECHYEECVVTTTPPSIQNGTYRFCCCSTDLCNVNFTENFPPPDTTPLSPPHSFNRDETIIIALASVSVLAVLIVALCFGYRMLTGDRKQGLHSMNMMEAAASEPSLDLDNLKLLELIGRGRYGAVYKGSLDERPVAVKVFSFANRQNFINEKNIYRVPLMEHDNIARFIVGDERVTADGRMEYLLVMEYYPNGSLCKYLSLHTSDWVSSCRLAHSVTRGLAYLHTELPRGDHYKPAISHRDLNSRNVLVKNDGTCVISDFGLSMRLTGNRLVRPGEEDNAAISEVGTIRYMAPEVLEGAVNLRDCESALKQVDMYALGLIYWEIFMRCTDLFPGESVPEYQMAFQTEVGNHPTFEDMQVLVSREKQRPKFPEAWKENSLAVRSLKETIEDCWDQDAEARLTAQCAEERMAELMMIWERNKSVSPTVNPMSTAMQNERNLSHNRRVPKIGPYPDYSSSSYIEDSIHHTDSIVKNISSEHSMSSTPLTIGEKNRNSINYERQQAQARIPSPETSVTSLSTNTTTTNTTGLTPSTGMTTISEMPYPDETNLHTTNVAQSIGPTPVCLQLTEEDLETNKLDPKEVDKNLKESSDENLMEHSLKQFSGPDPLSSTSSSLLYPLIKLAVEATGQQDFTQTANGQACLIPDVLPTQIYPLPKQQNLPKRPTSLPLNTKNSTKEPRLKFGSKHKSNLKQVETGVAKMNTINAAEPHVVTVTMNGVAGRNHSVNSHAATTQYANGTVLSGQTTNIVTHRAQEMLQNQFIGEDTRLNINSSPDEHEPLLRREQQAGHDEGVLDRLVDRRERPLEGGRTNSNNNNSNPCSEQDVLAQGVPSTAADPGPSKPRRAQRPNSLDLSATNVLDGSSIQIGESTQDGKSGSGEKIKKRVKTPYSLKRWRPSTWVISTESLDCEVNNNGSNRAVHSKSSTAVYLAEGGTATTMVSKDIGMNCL
Chain of PHKG1 (Q16816 whole entry): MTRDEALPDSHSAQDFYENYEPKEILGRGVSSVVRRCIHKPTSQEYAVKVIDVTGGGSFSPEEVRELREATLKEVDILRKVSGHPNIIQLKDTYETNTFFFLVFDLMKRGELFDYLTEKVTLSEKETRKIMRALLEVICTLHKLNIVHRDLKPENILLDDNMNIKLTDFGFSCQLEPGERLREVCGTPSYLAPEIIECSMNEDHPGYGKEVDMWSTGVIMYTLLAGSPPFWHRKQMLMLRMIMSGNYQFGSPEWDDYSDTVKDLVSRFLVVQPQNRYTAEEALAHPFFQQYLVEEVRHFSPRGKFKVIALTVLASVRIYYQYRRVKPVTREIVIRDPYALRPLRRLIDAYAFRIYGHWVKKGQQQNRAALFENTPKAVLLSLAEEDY
Chain of PRKCI (P41743 whole entry): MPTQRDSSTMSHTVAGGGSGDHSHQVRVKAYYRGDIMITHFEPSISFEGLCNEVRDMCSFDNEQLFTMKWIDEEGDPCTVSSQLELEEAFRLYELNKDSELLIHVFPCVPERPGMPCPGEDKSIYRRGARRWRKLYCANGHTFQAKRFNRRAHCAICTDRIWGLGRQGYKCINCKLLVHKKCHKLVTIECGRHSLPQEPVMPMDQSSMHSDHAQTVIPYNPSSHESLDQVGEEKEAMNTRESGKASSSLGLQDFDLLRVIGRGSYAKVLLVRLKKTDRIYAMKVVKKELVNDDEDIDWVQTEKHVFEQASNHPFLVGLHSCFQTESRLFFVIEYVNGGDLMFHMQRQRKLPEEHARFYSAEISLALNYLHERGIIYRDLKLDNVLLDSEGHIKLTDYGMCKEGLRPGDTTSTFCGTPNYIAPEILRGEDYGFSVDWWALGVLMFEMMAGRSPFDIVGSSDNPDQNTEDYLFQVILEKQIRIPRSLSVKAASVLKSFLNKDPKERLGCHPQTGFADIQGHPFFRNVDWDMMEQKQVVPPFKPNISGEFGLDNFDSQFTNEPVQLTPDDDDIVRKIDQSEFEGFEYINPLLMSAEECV
Chain of FGFR2 (P21802 22-821): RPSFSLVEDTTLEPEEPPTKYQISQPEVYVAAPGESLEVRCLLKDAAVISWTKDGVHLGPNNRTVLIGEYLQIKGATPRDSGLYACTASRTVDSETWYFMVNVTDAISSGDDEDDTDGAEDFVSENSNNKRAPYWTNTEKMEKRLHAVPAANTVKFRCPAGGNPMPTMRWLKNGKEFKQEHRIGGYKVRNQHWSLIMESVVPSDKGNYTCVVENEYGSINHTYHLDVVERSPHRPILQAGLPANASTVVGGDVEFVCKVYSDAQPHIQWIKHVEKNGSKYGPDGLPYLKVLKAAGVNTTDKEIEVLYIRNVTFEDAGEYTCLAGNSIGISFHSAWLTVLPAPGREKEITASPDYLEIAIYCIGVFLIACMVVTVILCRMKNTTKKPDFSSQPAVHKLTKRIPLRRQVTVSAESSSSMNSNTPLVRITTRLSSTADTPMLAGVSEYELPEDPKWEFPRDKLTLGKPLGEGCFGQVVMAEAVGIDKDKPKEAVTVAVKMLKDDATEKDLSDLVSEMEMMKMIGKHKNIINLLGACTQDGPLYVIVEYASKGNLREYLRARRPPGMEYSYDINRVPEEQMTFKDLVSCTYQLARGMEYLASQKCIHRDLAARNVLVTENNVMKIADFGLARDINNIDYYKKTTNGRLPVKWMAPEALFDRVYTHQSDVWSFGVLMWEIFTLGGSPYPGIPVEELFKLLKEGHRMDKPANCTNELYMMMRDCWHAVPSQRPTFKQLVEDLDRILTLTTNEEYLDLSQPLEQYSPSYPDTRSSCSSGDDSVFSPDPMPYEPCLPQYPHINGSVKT
Chain of CASK (O14936 whole entry): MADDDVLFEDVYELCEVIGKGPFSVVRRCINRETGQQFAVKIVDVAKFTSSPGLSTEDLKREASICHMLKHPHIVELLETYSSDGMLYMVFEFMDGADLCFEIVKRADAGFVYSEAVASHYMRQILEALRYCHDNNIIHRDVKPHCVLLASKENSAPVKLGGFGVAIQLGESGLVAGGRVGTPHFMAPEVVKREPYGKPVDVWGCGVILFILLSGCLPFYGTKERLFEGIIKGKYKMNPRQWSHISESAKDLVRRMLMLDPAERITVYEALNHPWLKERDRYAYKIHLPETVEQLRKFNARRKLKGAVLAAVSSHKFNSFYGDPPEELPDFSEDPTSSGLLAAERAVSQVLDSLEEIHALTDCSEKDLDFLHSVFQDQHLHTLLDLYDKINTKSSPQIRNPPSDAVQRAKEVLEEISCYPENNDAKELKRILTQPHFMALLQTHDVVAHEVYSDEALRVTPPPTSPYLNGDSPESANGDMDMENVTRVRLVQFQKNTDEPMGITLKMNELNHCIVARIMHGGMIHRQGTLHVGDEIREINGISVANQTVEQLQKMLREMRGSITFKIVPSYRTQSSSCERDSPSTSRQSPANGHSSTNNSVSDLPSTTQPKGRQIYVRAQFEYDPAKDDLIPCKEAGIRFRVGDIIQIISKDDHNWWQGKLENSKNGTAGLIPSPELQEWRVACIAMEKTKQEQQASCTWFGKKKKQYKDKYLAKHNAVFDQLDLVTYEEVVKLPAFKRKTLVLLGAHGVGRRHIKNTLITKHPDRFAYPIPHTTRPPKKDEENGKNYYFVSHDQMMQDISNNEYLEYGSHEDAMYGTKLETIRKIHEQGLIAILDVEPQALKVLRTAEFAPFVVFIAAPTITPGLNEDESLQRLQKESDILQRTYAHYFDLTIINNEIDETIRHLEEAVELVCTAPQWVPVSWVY
Chain of CAMK1D (Q8IU85 whole entry): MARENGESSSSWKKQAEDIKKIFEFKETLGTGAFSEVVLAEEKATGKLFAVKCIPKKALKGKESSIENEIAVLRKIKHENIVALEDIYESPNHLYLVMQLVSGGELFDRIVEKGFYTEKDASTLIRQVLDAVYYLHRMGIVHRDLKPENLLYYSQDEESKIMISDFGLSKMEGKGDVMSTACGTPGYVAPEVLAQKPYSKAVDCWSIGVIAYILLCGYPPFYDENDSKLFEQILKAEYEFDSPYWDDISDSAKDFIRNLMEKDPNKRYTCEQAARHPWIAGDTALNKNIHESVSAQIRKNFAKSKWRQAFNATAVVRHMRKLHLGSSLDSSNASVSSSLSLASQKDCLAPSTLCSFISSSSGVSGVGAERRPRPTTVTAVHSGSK
Chain of JAK2(JH1domain-catalytic) (O60674 849-1124): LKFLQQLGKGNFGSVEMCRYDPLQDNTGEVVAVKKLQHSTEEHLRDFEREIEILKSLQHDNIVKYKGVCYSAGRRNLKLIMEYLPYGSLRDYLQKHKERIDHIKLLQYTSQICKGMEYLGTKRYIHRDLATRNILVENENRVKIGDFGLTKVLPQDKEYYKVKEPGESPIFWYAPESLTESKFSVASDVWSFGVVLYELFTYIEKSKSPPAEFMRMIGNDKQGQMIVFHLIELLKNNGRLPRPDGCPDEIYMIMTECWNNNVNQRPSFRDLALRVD

**Q.** Which results are given for `CCNc1cc(Nc2ccc(C(=O)N3CCC(N4CCOCC4)CC3)cc2OC)nc2[nH]cc(C(F)(F)F)c12` [Example 57, (4-((4-(ethylamino)-3-(trifluoromethyl)-1H-pyrrolo[2,3-b]pyridin-6-yl)amino)-3-methoxyphenyl) (4-morpholinopiperidin-1-yl)methanone]?
**A.** remaining binding at 1 µM (FLT3(D835V)): 92%; remaining binding at 1 µM (YES): 83%; remaining binding at 1 µM (SRPK3): 100%; remaining binding at 1 µM (NDR1): 89%; remaining binding at 1 µM (FLT3(D835H)): 100%; remaining binding at 1 µM (FGFR2): 72%; remaining binding at 1 µM (ERK3): 94%; remaining binding at 1 µM [1]: 100%; remaining binding at 1 µM (MAP4K2): 100%; remaining binding at 1 µM (CASK): 88%; remaining binding at 1 µM (JNK1): 40%; remaining binding at 1 µM (ZAP70): 100%; remaining binding at 1 µM (YANK1): 100%; remaining binding at 1 µM (CAMK1D): 73%; remaining binding at 1 µM (MAPKAPK5): 100%; remaining binding at 1 µM (LYN): 100%; remaining binding at 1 µM (CAMK1): 78%; remaining binding at 1 µM (EGFR(G719C)): 91%; remaining binding at 1 µM (BIKE): 85%; remaining binding at 1 µM (MARK3): 92%; remaining binding at 1 µM (CAMK1B): 81%; remaining binding at 1 µM (IGF1R): 71%; remaining binding at 1 µM (ABL1-phosphorylated): 61%; remaining binding at 1 µM (LRRK2): 48%; remaining binding at 1 µM [2]: 68%; remaining binding at 1 µM (PRKCI): 63%; remaining binding at 1 µM (TGFBR2): 97%; remaining binding at 1 µM [3]: 96%; remaining binding at 1 µM (BRAF(V600E)): 94%; remaining binding at 1 µM (TRKA): 100%; remaining binding at 1 µM (p38-delta): 85%; remaining binding at 1 µM (PHKG1): 26%; remaining binding at 1 µM [4]: 97%; remaining binding at 1 µM (ERK5): 50%; remaining binding at 1 µM (CAMKK1): 59%; remaining binding at 1 µM (BMPR2): 84%

**Q.** What does the source list for `CCNc1cc(Nc2ccc(C(=O)N3CCC(N4CCOCC4)CC3)cc2OC)nc2[nH]cc(C#N)c12` [Example 18, 4-(ethylamino)-6-((2-methoxy-4-(4-morpholinopiperidine-1-carbonyl)phenyl)amino)-1H-pyrrolo[2,3-b]pyridine-3-carbonitrile]?
**A.** remaining binding at 1 µM (FLT3(D835V)): 74%; remaining binding at 1 µM (YES): 90%; remaining binding at 1 µM (SRPK3): 96%; remaining binding at 1 µM (NDR1): 69%; remaining binding at 1 µM (FLT3(D835H)): 89%; remaining binding at 1 µM (FGFR2): 85%; remaining binding at 1 µM (ERK3): 85%; remaining binding at 1 µM [1]: 70%; remaining binding at 1 µM (MAP4K2): 61%; remaining binding at 1 µM (CASK): 76%; remaining binding at 1 µM (JNK1): 0%; remaining binding at 1 µM (ZAP70): 38%; remaining binding at 1 µM (YANK1): 100%; remaining binding at 1 µM (CAMK1D): 31%; remaining binding at 1 µM (MAPKAPK5): 43%; remaining binding at 1 µM (LYN): 90%; remaining binding at 1 µM (CAMK1): 62%; remaining binding at 1 µM (EGFR(G719C)): 95%; remaining binding at 1 µM (BIKE): 90%; remaining binding at 1 µM (MARK3): 100%; remaining binding at 1 µM (CAMK1B): 34%; remaining binding at 1 µM (IGF1R): 74%; remaining binding at 1 µM (ABL1-phosphorylated): 87%; remaining binding at 1 µM (LRRK2): 1.1%; remaining binding at 1 µM [2]: 89%; remaining binding at 1 µM (PRKCI): 76%; remaining binding at 1 µM (TGFBR2): 100%; remaining binding at 1 µM [3]: 89%; remaining binding at 1 µM (BRAF(V600E)): 87%; remaining binding at 1 µM (TRKA): 86%; remaining binding at 1 µM (p38-delta): 99%; remaining binding at 1 µM (PHKG1): 16%; remaining binding at 1 µM [4]: 92%; remaining binding at 1 µM (ERK5): 20%; remaining binding at 1 µM (CAMKK1): 70%; remaining binding at 1 µM (BMPR2): 44%
